This passage reports Ki results from BindingDB's records for doi:10.1021/acs.jmedchem.5b01801 (University of Liverpool, 2016).

The nature of this assay: Inhibition of Cyclophilin D (unknown origin) activity preincubated for 15 mins followed Suc-AAPF-pNA substrate addition by chymotrypsin coupled based spectrophotometry assay.

In the case of `Nc1ccc(CNC(=O)NCC(=O)N2CCCC2)cc1`, the inhibitory constant (Ki) stood at 4.9 µM.

For `CCOC(=O)CNC(=O)NCc1ccc(NC(C)=O)cc1`, the affinity corresponds to a Ki of 2.6 µM.

A word on the Ki: it is the equilibrium dissociation constant of an inhibitor or competing ligand from its target. Low readings indicate higher affinity, high ones lower affinity.
